Test systems include CCRF-CEM leukemia; SK-MEL-5 melanoma; SF-268 CNS; SNB-19 CNS; IGROV1 ovarian; A498 renal; 786-0 renal; CAKI-1 renal; NCI-H23 lung; RPMI-8226 leukemia.
What all share (experiment): DTP human tumour cell line panel, 48 h

Molecules are shown by their SMILES. “And” between values parts separate entries of the source, which are not always exact repeats. Identical values can stand only once.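 Protocol summary: plate cells (96-well), add compound at 5 concentrations, incubate 48 h, interpolate endpoints linearly. GI50: concentration for 50% inhibition of growth. TGI is the concentration that stops growth completely.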 Bounds are passed on as bounds.

Usually GI50 stands for the concentration at which growth is held to half of that of the control. The TGI is the concentration at which net growth stops. Consider `CC(=O)/C(=C\c1c(-c2ccccc2)[nH]c2ccccc12)S(=O)(=O)c1ccccc1`, for which the GI50 with CCRF-CEM leukemia is 1.4 µM; with SK-MEL-5 melanoma, 0.78 µM; with SF-268 CNS, 3.35 µM; in the experiment with SNB-19 CNS it was 4.14 µM; with IGROV1 ovarian it was 1.51 µM; in the experiment on A498 renal it was 5.44 µM. Moreover, the GI50 in the experiment on 786-0 renal is 1.62 µM; in the experiment on CAKI-1 renal it was 2.43 µM; in the experiment with NCI-H23 lung, 1.48 µM; with RPMI-8226 leukemia it was 2.23 µM. Besides, the TGI in the experiment with CCRF-CEM leukemia came out at 4.78 µM; in the experiment with SK-MEL-5 melanoma it was 2.21 µM; in the experiment with SF-268 CNS, 31.1 µM; in the experiment on SNB-19 CNS, 12.1 µM; with IGROV1 ovarian, 4.37 µM; in the experiment on A498 renal, 15.9 µM. In addition, the concentration for total growth inhibition (TGI) with 786-0 renal turned out to be 3.44 µM; in the experiment on CAKI-1 renal it was 10.6 µM; in the experiment on NCI-H23 lung it was 5.52 µM; in the experiment on RPMI-8226 leukemia, 7.14 µM.

In the case of `Nc1nc(-c2cc(-c3cccc4ccccc34)nc(N)n2)cc(-c2cccc3ccccc23)n1`, the TGI in the experiment on CCRF-CEM leukemia, with SK-MEL-5 melanoma, in the experiment with SF-268 CNS, in the experiment with SNB-19 CNS, in the experiment with IGROV1 ovarian and in the experiment on A498 renal was > 100 µM throughout. The total growth inhibition concentration (TGI) in the experiment with 786-0 renal, with CAKI-1 renal, in the experiment on NCI-H23 lung and in the experiment on RPMI-8226 leukemia was > 100 µM each time.

On to `Clc1ccc(N2CCC(N3CCCC3)CC2)cc1-c1nc2ccccc2[nH]1`, for which the GI50 was 25.9 µM in the experiment with CCRF-CEM leukemia; 6.59 µM in the experiment on SK-MEL-5 melanoma; 15.4 µM in the experiment with SF-268 CNS; 33.7 µM in the experiment on SNB-19 CNS; 33.8 µM in the experiment with IGROV1 ovarian; 12.8 µM with A498 renal. Moreover, the GI50 was 14.7 µM with 786-0 renal, 19.3 µM with CAKI-1 renal, 25.7 µM in the experiment on NCI-H23 lung and 20.9 µM with RPMI-8226 leukemia. Besides, the TGI is 79.4 µM with CCRF-CEM leukemia; 17.1 µM in the experiment with SK-MEL-5 melanoma; 31.8 µM in the experiment with SF-268 CNS; > 100 µM in the experiment on SNB-19 CNS; > 100 µM in the experiment with IGROV1 ovarian; 27.8 µM with A498 renal. The TGI was 28.7 µM with 786-0 renal, 50 µM in the experiment with CAKI-1 renal, > 71.3 µM in the experiment on NCI-H23 lung and 53.8 µM with RPMI-8226 leukemia.

Turning to `O=c1cc(O)c2c(O)cc(O)cc2o1`, the TGI with CCRF-CEM leukemia, in the experiment on SK-MEL-5 melanoma, in the experiment on SF-268 CNS, with SNB-19 CNS, with IGROV1 ovarian and with A498 renal was > 100 µM in each case. Besides, the concentration for total growth inhibition (TGI) with 786-0 renal, in the experiment with CAKI-1 renal, in the experiment with NCI-H23 lung and with RPMI-8226 leukemia was > 100 µM throughout.

On to `CC/C(CC(=O)CCC(=O)Nc1ccc(C)c(C)c1)=N\NC(=O)C(N)=O`, for which the TGI in the experiment on CCRF-CEM leukemia, in the experiment on SK-MEL-5 melanoma, with SF-268 CNS, in the experiment on SNB-19 CNS, in the experiment with IGROV1 ovarian and in the experiment on A498 renal was > 100 µM in each case. Also, the total growth inhibition concentration (TGI) in the experiment with 786-0 renal, with CAKI-1 renal, with NCI-H23 lung and in the experiment on RPMI-8226 leukemia was > 100 µM each time.

For `C[C@@](O)(/C=C/[C@H]1CC=CC(=O)O1)[C@@H](C[C@@H](O)\C=C/C=C\C=C\CO)OP(=O)(O)O`, the GI50 in the experiment on CCRF-CEM leukemia is 3.52 µM; with SK-MEL-5 melanoma, 7.89 µM; in the experiment with SF-268 CNS it was 12.2 µM; with SNB-19 CNS, 20.7 µM; with A498 renal it was 40.2 µM; with NCI-H23 lung, 15 µM. For the same compound, the TGI with CCRF-CEM leukemia is 335 µM and 34.1 µM; with SK-MEL-5 melanoma, 21.8 µM and 27 µM; in the experiment on SF-268 CNS it was 83.2 µM and 99.1 µM; in the experiment with SNB-19 CNS, 92.6 µM and 184 µM; in the experiment with IGROV1 ovarian, 15.4 µM; with A498 renal, 83.8 µM and 60.3 µM. The TGI in the experiment on 786-0 renal is 20.2 µM; with CAKI-1 renal, 4.66 µM; in the experiment on NCI-H23 lung, 91.6 µM and 68.3 µM; in the experiment on RPMI-8226 leukemia, 8.5 µM.

For the compound `C#C/C=C/CC1OC(C(Br)CC)CC(Br)C2CC1O2` (stereo unspecified), the TGI with CCRF-CEM leukemia is > 100 µM; with SK-MEL-5 melanoma, > 100 µM; in the experiment on SF-268 CNS, > 100 µM; with SNB-19 CNS it was > 100 µM; in the experiment with IGROV1 ovarian, 14.6 µM; in the experiment on A498 renal, > 100 µM. Also, the concentration for total growth inhibition (TGI) with 786-0 renal was 24.8 µM; in the experiment with CAKI-1 renal, > 100 µM; in the experiment on NCI-H23 lung it was > 100 µM; in the experiment with RPMI-8226 leukemia it was > 100 µM.

`Cc1ncc(-c2ccnc(Nc3ccc(S(C)(=O)=O)cc3)n2)n1C(C)C`: the GI50 with CCRF-CEM leukemia was 0.987 µM; in the experiment with SK-MEL-5 melanoma it was 0.811 µM; in the experiment with SF-268 CNS, 1.67 µM; in the experiment on SNB-19 CNS, 2.23 µM; in the experiment on IGROV1 ovarian it was 0.758 µM; with A498 renal, 0.647 µM. In addition, the GI50 in the experiment on 786-0 renal is 0.922 µM; in the experiment with CAKI-1 renal, 0.805 µM; in the experiment on NCI-H23 lung, 1.79 µM; in the experiment with RPMI-8226 leukemia, 1.57 µM. For the same compound, the total growth inhibition concentration (TGI) in the experiment with CCRF-CEM leukemia was > 7.12 µM; with SK-MEL-5 melanoma it was 3.29 µM; in the experiment on SF-268 CNS, 6.62 µM; with SNB-19 CNS, > 10 µM; in the experiment with IGROV1 ovarian it was > 7.91 µM; in the experiment with A498 renal it was 2.55 µM. Also, the TGI is > 10 µM in the experiment with 786-0 renal, > 10 µM in the experiment on CAKI-1 renal, 7.17 µM in the experiment with NCI-H23 lung and 6.18 µM in the experiment on RPMI-8226 leukemia.

Take `Cc1ccc(S(=O)(=O)SCc2ccccc2)cc1`: the TGI with CCRF-CEM leukemia is 7.25 µM; in the experiment on SK-MEL-5 melanoma, 54.5 µM; in the experiment on SF-268 CNS it was > 85.7 µM; in the experiment with SNB-19 CNS, > 91.7 µM; with IGROV1 ovarian, > 100 µM; with A498 renal, > 100 µM. For the same compound, the concentration for total growth inhibition (TGI) was 31.4 µM with 786-0 renal, > 75.2 µM in the experiment with CAKI-1 renal, 36.2 µM in the experiment with NCI-H23 lung and 33.5 µM with RPMI-8226 leukemia.

With `CCc1ncnc2cc(OCC3CO3)c(OC)cc12` (stereo unspecified), the TGI in the experiment on CCRF-CEM leukemia was 27.2 µM; in the experiment on SK-MEL-5 melanoma, 21.9 µM; with SF-268 CNS, > 100 µM; in the experiment with SNB-19 CNS it was > 100 µM; in the experiment on IGROV1 ovarian, 6.8 µM; in the experiment on A498 renal, 58.1 µM. In addition, the TGI was 20.7 µM in the experiment on 786-0 renal, > 100 µM with CAKI-1 renal, 16.2 µM in the experiment on NCI-H23 lung and 5.38 µM in the experiment on RPMI-8226 leukemia.

The values above are taken from PubChem BioAssay (NCI).
